Measurements published in PubChem BioAssay AID194 (DTP/NCI, 2004).
Values joined by “and” are separate entries in the source; they are usually repeats but may differ in a detail not shown here. Equal entries are not always repeated. Results filed as inconclusive are left out.

Test system: BDF1 mice, B16 melanoma s.c., survival/tumor T/C
Experiment: NCI In Vivo Anticancer Drug Screen. Data for tumor model B16 Melanoma (subcutaneous) in B6D2F1 (BDF1) mice
Experimental: The antitumor activity of compounds was measured in mice bearing transplantable tumors. Survival or tumor size were measured and the results are expressed as the measurement made in the treated group (T) divided by the measurement made in the vehicle treated control group (C). The tumor model used in this assay is B16 Melanoma (subcutaneous) in B6D2F1 (BDF1) mice

[1] = endpoint: median survival time, dose: 1.0 mg/kg/injection, schedule: Q01DX009 (ip), vehicle: saline, higher = longer survival
[2] = endpoint: median survival time, dose: 2.0 mg/kg/injection, schedule: Q01DX009 (ip), vehicle: saline, higher = longer survival
[3] = endpoint: median survival time, dose: 4.0 mg/kg/injection, schedule: Q01DX009 (ip), vehicle: saline, higher = longer survival
[4] = endpoint: median survival time, dose: 8.0 mg/kg/injection, schedule: Q01DX009 (ip), vehicle: saline, higher = longer survival
[5] = endpoint: median survival time, dose: 0.5 mg/kg/injection, schedule: Q01DX009 (ip), vehicle: saline, higher = longer survival
[6] = endpoint: median survival time, dose: 2.0 mg/kg/injection, schedule: Q02DX009 (ip), vehicle: Klucel (hydroxypropylcellulose) (HPC), higher = longer survival
[7] = endpoint: median survival time, dose: 8.0 mg/kg/injection, schedule: Q02DX009 (ip), vehicle: Klucel (hydroxypropylcellulose) (HPC), higher = longer survival

N[C@H](C(=O)O)[C@@H]1CC(Cl)=NO1
T/C [1]: 87 % of control and 114 % of control
T/C (endpoint: median survival time, dose: 1.4 mg/kg/injection, schedule: Q01DX009 (ip), vehicle: saline, higher = longer survival): 116 % of control
T/C [2]: 95 % of control and 105 % of control
T/C (endpoint: median survival time, dose: 2.1 mg/kg/injection, schedule: Q01DX009 (ip), vehicle: saline, higher = longer survival): 120 % of control
T/C (endpoint: median survival time, dose: 3.2 mg/kg/injection, schedule: Q01DX009 (ip), vehicle: saline, higher = longer survival): 124 % of control
T/C [3]: 90 % of control
T/C [4]: 108 % of control
T/C (endpoint: median survival time, dose: 16.0 mg/kg/injection, schedule: Q01DX009 (ip), vehicle: saline, higher = longer survival): 101 % of control
T/C (endpoint: median survival time, dose: 27.0 mg/kg/injection, schedule: Q04DX003 (ip), vehicle: saline, higher = longer survival): 120 % of control
T/C (endpoint: median survival time, dose: 40.0 mg/kg/injection, schedule: Q01DX001 (ip), vehicle: saline, higher = longer survival): 103 % of control
T/C (endpoint: median survival time, dose: 40.0 mg/kg/injection, schedule: Q04DX003 (ip), vehicle: saline, higher = longer survival): 119 % of control
T/C (endpoint: median survival time, dose: 60.0 mg/kg/injection, schedule: Q01DX001 (ip), vehicle: saline, higher = longer survival): 113 % of control
T/C (endpoint: median survival time, dose: 60.0 mg/kg/injection, schedule: Q04DX003 (ip), vehicle: saline, higher = longer survival): 124 % of control
T/C (endpoint: median survival time, dose: 90.0 mg/kg/injection, schedule: Q01DX001 (ip), vehicle: saline, higher = longer survival): 112 % of control

O=C(O)CC(NC(=O)CP(=O)(O)O)C(=O)O (centres undefined)
T/C (endpoint: median survival time, dose: 153.0 mg/kg/injection, schedule: Q01DX009 (ip), vehicle: saline, higher = longer survival): 110 % of control
T/C (endpoint: median survival time, dose: 1140.0 mg/kg/injection, schedule: Q01DX001 (ip), vehicle: saline, higher = longer survival): 114 % of control

O=NN(CCCl)C(=O)NCCCl
T/C [5]: 100 % of control
T/C [1]: 106 % of control
T/C (endpoint: median survival time, dose: 1.5 mg/kg/injection, schedule: Q02DX009 (ip), vehicle: saline + alcohol, higher = longer survival): 151 % of control
T/C [2]: 117 % of control
T/C (endpoint: median survival time, dose: 3.11 mg/kg/injection, schedule: Q01DX007 (ip), vehicle: Klucel (hydroxypropylcellulose) (HPC), higher = longer survival): 117 % of control
T/C [3]: 184 % of control
T/C [4]: 167 % of control
T/C (endpoint: median survival time, dose: 14.4 mg/kg/injection, schedule: Q01DX007 (ip), vehicle: Klucel (hydroxypropylcellulose) (HPC), higher = longer survival): 121 % of control

CC1(C)CC(O)(C(Cl)c2ccccc2)C(=O)c2ccccc21 (centres undefined)
T/C (endpoint: median survival time, dose: 88.0 mg/kg/injection, schedule: Q01DX009 (ip), vehicle: distilled water + Tween-80, higher = longer survival): 96 % of control
T/C (endpoint: median survival time, dose: 133.0 mg/kg/injection, schedule: Q01DX009 (ip), vehicle: distilled water + Tween-80, higher = longer survival): 97 % of control
T/C (endpoint: median survival time, dose: 200.0 mg/kg/injection, schedule: Q01DX009 (ip), vehicle: distilled water + Tween-80, higher = longer survival): 93 % of control
T/C (endpoint: median survival time, dose: 300.0 mg/kg/injection, schedule: Q01DX009 (ip), vehicle: distilled water + Tween-80, higher = longer survival): 89 % of control
T/C (endpoint: median tumor weight (est.), dose: 133.0 mg/kg/injection, schedule: Q01DX009 (ip), vehicle: distilled water + Tween-80, higher = larger tumour): 71 % of control
T/C (endpoint: median tumor weight (est.), dose: 200.0 mg/kg/injection, schedule: Q01DX009 (ip), vehicle: distilled water + Tween-80, higher = larger tumour): 106 % of control
T/C (endpoint: median tumor weight (est.), dose: 300.0 mg/kg/injection, schedule: Q01DX009 (ip), vehicle: distilled water + Tween-80, higher = larger tumour): 91 % of control

CCC(=O)OCC(=O)[C@]1(O)Cc2c(O)c3c(c(O)c2[C@@H](OC2CC(N)C(O)C(C)O2)C1)C(=O)c1c(OC)cccc1C3=O (some centres undefined)
T/C (endpoint: median survival time, dose: 0.25 mg/kg/injection, schedule: Q01DX009 (ip), vehicle: saline, higher = longer survival): 90 % of control
T/C [5]: 118 % of control
T/C [1]: 102 % of control

CC1CCC(NC(=O)N(CCCl)N=O)CC1 (centres undefined)
T/C [6]: 113 % of control
T/C (endpoint: median survival time, dose: 2.5 mg/kg/injection, schedule: Q04DX003 (ip), vehicle: other, higher = longer survival): 123 % of control
T/C (endpoint: median survival time, dose: 4.0 mg/kg/injection, schedule: Q01DX001 (ip), vehicle: saline with Tween-80, higher = longer survival): 87 % of control
T/C (endpoint: median survival time, dose: 5.0 mg/kg/injection, schedule: Q04DX003 (ip), vehicle: other, higher = longer survival): 104 % of control
T/C (endpoint: median survival time, dose: 8.0 mg/kg/injection, schedule: Q01DX001 (ip), vehicle: saline with Tween-80, higher = longer survival): 87 % of control and 120 % of control
T/C [7]: 189 % of control
T/C (endpoint: median survival time, dose: 8.0 mg/kg/injection, schedule: Q04DX003 (ip), vehicle: saline with Tween-80, higher = longer survival): 106 % of control
T/C (endpoint: median survival time, dose: 10.0 mg/kg/injection, schedule: Q01DX001 (ip), vehicle: other, higher = longer survival): 111 % of control
T/C (endpoint: median survival time, dose: 12.0 mg/kg/injection, schedule: Q04DX003 (ip), vehicle: saline with Tween-80, higher = longer survival): 101 % of control
T/C (endpoint: median survival time, dose: 16.0 mg/kg/injection, schedule: Q01DX001 (ip), vehicle: saline with Tween-80, higher = longer survival): 124 % of control
T/C (endpoint: median survival time, dose: 16.0 mg/kg/injection, schedule: Q02DX009 (ip), vehicle: Klucel (hydroxypropylcellulose) (HPC), higher = longer survival): 109 % of control
T/C (endpoint: median survival time, dose: 18.0 mg/kg/injection, schedule: Q01DX001 (ip), vehicle: saline with Tween-80, higher = longer survival): 120 % of control
T/C (endpoint: median survival time, dose: 18.0 mg/kg/injection, schedule: Q04DX003 (ip), vehicle: saline with Tween-80, higher = longer survival): 192 % of control
T/C (endpoint: median survival time, dose: 20.0 mg/kg/injection, schedule: Q01DX001 (ip), vehicle: other, higher = longer survival): 192 % of control
T/C (endpoint: median survival time, dose: 20.0 mg/kg/injection, schedule: Q04DX003 (ip), vehicle: other, higher = longer survival): 223 % of control and 256 % of control
T/C (endpoint: median survival time, dose: 32.0 mg/kg/injection, schedule: Q01DX001 (ip), vehicle: saline with Tween-80, higher = longer survival): 157 % of control
T/C (endpoint: median survival time, dose: 36.0 mg/kg/injection, schedule: Q01DX001 (ip), vehicle: saline with Tween-80, higher = longer survival): 213 % of control
T/C (endpoint: median tumor weight (est.), dose: 15.0 mg/kg/injection, schedule: Q01DX001 (ip), vehicle: Klucel (hydroxypropylcellulose) (HPC), higher = larger tumour): 50 % of control and 72 % of control
T/C (endpoint: median tumor weight (est.), dose: 30.0 mg/kg/injection, schedule: Q01DX001 (ip), vehicle: Klucel (hydroxypropylcellulose) (HPC), higher = larger tumour): 68 % of control
T/C (endpoint: median tumor weight (est.), dose: 60.0 mg/kg/injection, schedule: Q01DX001 (ip), vehicle: Klucel (hydroxypropylcellulose) (HPC), higher = larger tumour): 45 % of control

CC/C(=C(/CC)c1ccc(O)cc1)c1ccc(O)cc1
T/C (endpoint: median survival time, dose: 6.0 mg/kg/injection, schedule: Q01DX009 (ip), vehicle: Klucel (hydroxypropylcellulose) (HPC), higher = longer survival): 93 % of control
T/C (endpoint: median survival time, dose: 12.0 mg/kg/injection, schedule: Q01DX009 (ip), vehicle: Klucel (hydroxypropylcellulose) (HPC), higher = longer survival): 100 % of control
T/C (endpoint: median survival time, dose: 24.0 mg/kg/injection, schedule: Q01DX009 (ip), vehicle: Klucel (hydroxypropylcellulose) (HPC), higher = longer survival): 106 % of control
T/C (endpoint: median survival time, dose: 48.0 mg/kg/injection, schedule: Q01DX009 (ip), vehicle: Klucel (hydroxypropylcellulose) (HPC), higher = longer survival): 97 % of control

Cc1c(N)nc(C(CC(N)=O)NCC(N)C(N)=O)nc1C(=O)NC(C(=O)NC(C)C(O)CC(=O)NC(C(=O)NC(OC1OC(C)C(N)C(O)C1O)C(O)c1nc(-c2nc(C(=O)NCCCC(N)CC(=O)NCCCNCCCCN)cs2)cs1)C(C)O)C(OC1OC(CO)C(O)C(O)C1OC1OC(CO)C(O)C(OC(N)=O)C1O)c1cnc[nH]1 (centres undefined)
T/C [1]: 173 % of control
T/C [2]: 174 % of control
T/C [3]: 160 % of control

Cc1nc(N)nc(N)c1-c1ccc(Cl)c(Cl)c1
T/C (endpoint: median survival time, dose: 1.0 mg/kg/injection, schedule: Q02DX009 (ip), vehicle: Klucel (hydroxypropylcellulose) (HPC), higher = longer survival): 103 % of control
T/C [6]: 99 % of control
T/C (endpoint: median survival time, dose: 4.0 mg/kg/injection, schedule: Q02DX009 (ip), vehicle: Klucel (hydroxypropylcellulose) (HPC), higher = longer survival): 88 % of control
T/C [7]: 112 % of control

COc1cc2c[n+](C)c3c4cc5c(cc4ccc3c2cc1OC)OCO5
T/C (endpoint: median survival time, dose: 3.12 mg/kg/injection, schedule: Q01DX009 (ip), vehicle: Klucel (hydroxypropylcellulose) (HPC), higher = longer survival): 107 % of control
T/C (endpoint: median survival time, dose: 6.25 mg/kg/injection, schedule: Q01DX009 (ip), vehicle: Klucel (hydroxypropylcellulose) (HPC), higher = longer survival): 96 % of control
T/C (endpoint: median survival time, dose: 12.5 mg/kg/injection, schedule: Q01DX009 (ip), vehicle: Klucel (hydroxypropylcellulose) (HPC), higher = longer survival): 116 % of control

CCCCS(=N)(=O)CC[C@H](N)C(=O)O (some centres undefined)
T/C (endpoint: median survival time, dose: 444.0 mg/kg/injection, schedule: Q04HX003 (ip), vehicle: saline, higher = longer survival): 104 % of control
T/C (endpoint: median survival time, dose: 888.0 mg/kg/injection, schedule: Q04HX003 (ip), vehicle: saline, higher = longer survival): 100 % of control
T/C (endpoint: median survival time, dose: 1776.0 mg/kg/injection, schedule: Q04HX003 (ip), vehicle: saline, higher = longer survival): 102 % of control

CCOC(=O)C(CC(C)C)NC(=O)C(Cc1ccc(N(CCCl)CCCl)cc1)NC(C)=O (centres undefined)
T/C (endpoint: median survival time, dose: 1.0 mg/kg/injection, schedule: Q01DX009 (ip), vehicle: other, higher = longer survival): 91 % of control
T/C (endpoint: median survival time, dose: 2.0 mg/kg/injection, schedule: Q01DX009 (ip), vehicle: other, higher = longer survival): 103 % of control
T/C (endpoint: median survival time, dose: 4.0 mg/kg/injection, schedule: Q01DX009 (ip), vehicle: other, higher = longer survival): 97 % of control
T/C (endpoint: median survival time, dose: 16.0 mg/kg/injection, schedule: Q01DX009 (ip), vehicle: other, higher = longer survival): 89 % of control

CC(=O)O[C@]1(C(C)=O)CC[C@H]2[C@@H]3C[C@H](C)C4=CC(=O)CC[C@]4(C)[C@H]3CC[C@@]21C
T/C (endpoint: median survival time, dose: 100.0 mg/kg/injection, schedule: Q01DX009 (ip), vehicle: Klucel (hydroxypropylcellulose) (HPC), higher = longer survival): 111 % of control and 112 % of control
T/C (endpoint: median survival time, dose: 200.0 mg/kg/injection, schedule: Q01DX009 (ip), vehicle: Klucel (hydroxypropylcellulose) (HPC), higher = longer survival): 86 % of control and 102 % of control
T/C (endpoint: median survival time, dose: 400.0 mg/kg/injection, schedule: Q01DX009 (ip), vehicle: Klucel (hydroxypropylcellulose) (HPC), higher = longer survival): 96 % of control and 102 % of control
T/C (endpoint: median survival time, dose: 800.0 mg/kg/injection, schedule: Q01DX009 (ip), vehicle: Klucel (hydroxypropylcellulose) (HPC), higher = longer survival): 104 % of control and 111 % of control
